# According to US12370235B2, “Synthetic, non-natural antimicrobial peptides inspired by Staphylococcus auricularis delta toxin” (University of Saskatchewan, priority 2021, dated 2025):
# Ends that are not written are not given here.
# How the values were obtained:
# S. aureus ATCC 29213 = experiment: MIC, broth dilution; format: cell-based, Staphylococcus aureus; details: Table 5; STIP3 variants, highest concentration 100 μg/mL
# Outline: (§1)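 Peptides (95% purity) were serially diluted 2-fold and mixed with bacteria diluted to OD 6×10^−4 in cation-adjusted Mueller Hinton broth. Standing cultures were incubated overnight at 37° C. MIC was the lowest peptide concentration with no observed growth.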
# [1] = system: S. aureus ATCC 33592 (MRSA SCCmec type III); experiment: MIC, broth dilution; format: cell-based, Staphylococcus aureus; details: Table 5; STIP3 variants, highest concentration 100 μg/mL
# Outline: as §1
# [2] = system: S. aureus ATCC BAA-1683 (MRSA SCCmec type IV); experiment: MIC, broth dilution; format: cell-based, Staphylococcus aureus; details: Table 5; STIP3 variants, highest concentration 100 μg/mL
# Outline: as §1
# [3] = system: S. aureus ATCC BAA-2094 (MRSA SCCmec type V); experiment: MIC, broth dilution; format: cell-based, Staphylococcus aureus; details: Table 5; STIP3 variants, highest concentration 100 μg/mL
# Outline: as §1
# [4] = system: S. aureus ATCC BAA-2313 (MRSA SCCmec type XI); experiment: MIC, broth dilution; format: cell-based, Staphylococcus aureus; details: Table 5; STIP3 variants, highest concentration 100 μg/mL
# Outline: as §1
# [5] = system: S. aureus ATCC BAA-41 (MRSA SCCmec type II); experiment: MIC, broth dilution; format: cell-based, Staphylococcus aureus; details: Table 5; STIP3 variants, highest concentration 100 μg/mL
# Outline: as §1
# [6] = system: S. aureus ATCC BAA-42 (MRSA SCCmec type VI); experiment: MIC, broth dilution; format: cell-based, Staphylococcus aureus; details: Table 5; STIP3 variants, highest concentration 100 μg/mL
# Outline: as §1
# [7] = system: S. aureus ATCC BAA-44 (MRSA SCCmec type I); experiment: MIC, broth dilution; format: cell-based, Staphylococcus aureus; details: Table 5; STIP3 variants, highest concentration 100 μg/mL
# Outline: as §1
# [8] = system: Mannheimia haemolytica ATCC 33393; experiment: MIC, broth dilution; format: cell-based; details: Table 11; highest concentration 25 μg/mL
# Outline: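 Peptides (95% purity) in 2-fold dilution series were mixed with M. haemolytica diluted to OD 6×10^−4 in cation-adjusted Mueller Hinton broth and incubated standing overnight at 37 °C. MIC was the lowest concentration with no visible growth.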
# C. albicans MYA-2876 = experiment: MIC, YPD broth; format: cell-based, Candida albicans; details: Table 8
# Outline: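 Minimum inhibitory concentrations against Candida albicans were determined in YPD broth (10 g/L yeast extract, 20 g/L peptone, 20 g/L dextrose) using peptides of 95% purity. A 180 μl volume of diluted yeast was combined with 20 μl of peptide in a 2-fold dilution series in 96-well plates, with sterile water as control, then incubated standing overnight at 37° C.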
# C. albicans Y537 = experiment: MIC, YPD broth; format: cell-based, Candida albicans; details: Table 8
# [9] = system: Candida duobushaemulonii AR 391; experiment: MIC, YPD broth, CDC and FDA AR Candida isolate panel; format: cell-based
# Outline: (§2)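 Broth microdilution in YPD; yeast diluted to optical density […] and mixed with 2-fold serial dilutions of peptide (95% purity), water control. Standing cultures incubated overnight at 37 °C.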
# [10] = system: Candida duobushaemulonii AR 392; experiment: as above; format: cell-based
# Outline: as §2
# [11] = system: Candida duobushaemulonii AR 394; experiment: as above; format: cell-based
# Outline: as §2
# Candida krusei AR 397 = experiment: as above; format: cell-based
# Outline: as §2
# [12] = system: Candida lusitaniae AR 398; experiment: as above; format: cell-based
# Outline: as §2
# Kodamae ohmeri AR 396 = experiment: as above; format: cell-based
# Outline: as §2
# [13] = system: Saccharomyces cerevisiae AR 399; experiment: as above; format: cell-based
# Outline: as §2
# [14] = system: Saccharomyces cerevisiae AR 400; experiment: as above; format: cell-based
# Outline: as §2
# [15] = system: Candida haemulonii AR 393; experiment: as above; format: cell-based
# Outline: as §2
# [16] = system: Candida haemulonii AR 395; experiment: as above; format: cell-based; details: Table 9 below the line: only 200 or 100 μg/mL tested; values reported as 100 are ≤100 μg/mL
# Outline: as §2
# [17] = Table 9 top part: titrations from 1.56 to 100 μg/mL
# [18] = Table 9 below the line: only 200 or 100 μg/mL tested, values reported as 100 are ≤100 μg/mL
Substance,MIC S. aureus ATCC 29213 (S. aureus ATCC 29213) [µg/mL],MIC S. aureus ATCC 33592 (III) [1] [µg/mL],MIC S. aureus ATCC BAA 1683 (IV) [2] [µg/mL],MIC S. aureus ATCC BAA 2094 (V) [3] [µg/mL],MIC S. aureus ATCC BAA 2313 (XI) [4] [µg/mL],MIC S. aureus ATCC BAA 41 (II) [5] [µg/mL],MIC S. aureus ATCC BAA 42 (VI) [6] [µg/mL],MIC S. aureus ATCC BAA 44 (I) [7] [µg/mL],MIC (μg/mL) M. haemolytica [8] [µg/mL],MIC C. albicans MYA-2876 (C. albicans MYA-2876),MIC C. albicans Y537 (C. albicans Y537),"MIC (μg/mL) Candida duobushaemulonii AR 391 [9, 17] [µg/mL]","MIC (μg/mL) Candida duobushaemulonii AR 392 [10, 17]","MIC (μg/mL) Candida duobushaemulonii AR 394 [11, 17] [µg/mL]",MIC (μg/mL) Candida krusei AR 397 (Candida krusei AR 397; [17]) [µg/mL],"MIC (μg/mL) Candida lusitaniae AR 398 [12, 17] [µg/mL]",MIC (μg/mL) Kodamae ohmeri AR 396 (Kodamae ohmeri AR 396; [17]),"MIC (μg/mL) Saccharomyces cerevisiae AR 399 [13, 17] [µg/mL]","MIC (μg/mL) Saccharomyces cerevisiae AR 400 [14, 17] [µg/mL]","MIC (μg/mL) Candida duobushaemulonii AR 391 [9, 18]",further results
"TVKALVKWILKTVAKFA [STIP3-19, TVKALVKWILKTVAKFA]",50,25,25,25,25,50,50,25,12.5,> (> symbol indicates that no inhibition was observed at the highest concentration of peptide tested: 100 μg/mL),> (> symbol indicates that no inhibition was observed at the highest concentration of peptide tested: 100 μg/mL),50,100 µg/mL,100,100,50,> (MIC values reported at the top of the table (above the double line) are based on titrations from 1.56 to 100 μg/mL),100,50,,
"TVKALVKWILKTVAKFW [STIP3-21, TVKALVKWILKTVAKFW]",25,25,12.5,12.5,12.5,25,25,25,12.5,> (> symbol indicates that no inhibition was observed at the highest concentration of peptide tested: 100 μg/mL),> (> symbol indicates that no inhibition was observed at the highest concentration of peptide tested: 100 μg/mL),,> (MIC values reported at the top of the table (above the double line) are based on titrations from 1.56 to 100 μg/mL),,100,50,> (MIC values reported at the top of the table (above the double line) are based on titrations from 1.56 to 100 μg/mL),,200,,
"TVKALVKWILKTVAKFW-NH2 [STIP3-31, TVKALVKWILKTVAKFW-NH2]",25,25,25,25,25,25,50,25,6.25,> (> symbol indicates that no inhibition was observed at the highest concentration of peptide tested: 100 μg/mL),> (> symbol indicates that no inhibition was observed at the highest concentration of peptide tested: 100 μg/mL),,,,,,,,,> (values below the line were determined using two concentrations of peptide 200 or 100 μg/mL),"MIC (μg/mL) Candida duobushaemulonii AR 392 [10, 18]: > (values below the line were determined using two concentrations of peptide 200 or 100 μg/mL); MIC (μg/mL) Candida duobushaemulonii AR 394 [11, 18]: > (values below the line were determined using two concentrations of peptide 200 or 100 μg/mL); MIC (μg/mL) Candida haemulonii AR 393 [15, 18]: > (values below the line were determined using two concentrations of peptide 200 or 100 μg/mL); MIC (μg/mL) Candida krusei AR 397 (Candida krusei AR 397; [18]): > (values below the line were determined using two concentrations of peptide 200 or 100 μg/mL); MIC (μg/mL) Candida lusitaniae AR 398 [12, 18]: > (values below the line were determined using two concentrations of peptide 200 or 100 μg/mL); MIC (μg/mL) Kodamae ohmeri AR 396 (Kodamae ohmeri AR 396; [18]): > (values below the line were determined using two concentrations of peptide 200 or 100 μg/mL); MIC (μg/mL) Saccharomyces cerevisiae AR 399 [13, 18]: > (values below the line were determined using two concentrations of peptide 200 or 100 μg/mL); MIC (μg/mL) Saccharomyces cerevisiae AR 400 [14, 18]: > (values below the line were determined using two concentrations of peptide 200 or 100 μg/mL)"
"TVKGLVKWILNVVKKFA-NH2 [STIP3-30, TVKGLVKWILNVVKKFA-NH2]",12.5,12.5,12.5,25,25,25,25,12.5,12.5,25 µg/mL,50 µg/mL,12.5,25 µg/mL,25,12.5,6.25,25 µg/mL,25,12.5,,"MIC (μg/mL) Candida haemulonii AR 393 [15, 17]: 100 µg/mL"
"TVRALVRWILRTVARFA [STIP3-23, TVRALVRWILRTVARFA]",25,25,25,50,25,6.25,50,25,12.5,> (> symbol indicates that no inhibition was observed at the highest concentration of peptide tested: 100 μg/mL),,,,,,,,,,> (values below the line were determined using two concentrations of peptide 200 or 100 μg/mL),"MIC (μg/mL) Candida duobushaemulonii AR 392 [10, 18]: > (values below the line were determined using two concentrations of peptide 200 or 100 μg/mL); MIC (μg/mL) Candida duobushaemulonii AR 394 [11, 18]: > (values below the line were determined using two concentrations of peptide 200 or 100 μg/mL); MIC (μg/mL) Candida haemulonii AR 393 [15, 18]: > (values below the line were determined using two concentrations of peptide 200 or 100 μg/mL); MIC (μg/mL) Candida haemulonii AR 395 [16]: > (values below the line were determined using two concentrations of peptide 200 or 100 μg/mL); MIC (μg/mL) Candida krusei AR 397 (Candida krusei AR 397; [18]): > (values below the line were determined using two concentrations of peptide 200 or 100 μg/mL); MIC (μg/mL) Candida lusitaniae AR 398 [12, 18]: ≤ 100 µg/mL; MIC (μg/mL) Kodamae ohmeri AR 396 (Kodamae ohmeri AR 396; [18]): > (values below the line were determined using two concentrations of peptide 200 or 100 μg/mL); MIC (μg/mL) Saccharomyces cerevisiae AR 399 [13, 18]: ≤ 100 µg/mL; MIC (μg/mL) Saccharomyces cerevisiae AR 400 [14, 18]: ≤ 100 µg/mL"
